Laboratory results as given in patent publication US20110105397A1, “METHOD FOR TREATING HEART FAILURE WITH STRESSCOPIN-LIKE PEPTIDES” (priority 2009, published 2011).
“And” between values parts separate entries of the source, which are not always exact repeats. Equal values may be shown once. Read-outs that look alike come from different tables or passages of the source.

How the values were obtained:
human CRHR2 = target: T1, human CRHR2 (Homo sapiens, UniProt Q13324); assay: cAMP assay, h-CRHR2 transfected SK-N-MC cells; type: cell-based; settings: for nH (Hill slope) / αmax (maximal asymptote): h-CRHR2; for αmax (maximal asymptote): in %
T1 construct: expressed in transfected cells
T1 sequence (Q13324 1-411): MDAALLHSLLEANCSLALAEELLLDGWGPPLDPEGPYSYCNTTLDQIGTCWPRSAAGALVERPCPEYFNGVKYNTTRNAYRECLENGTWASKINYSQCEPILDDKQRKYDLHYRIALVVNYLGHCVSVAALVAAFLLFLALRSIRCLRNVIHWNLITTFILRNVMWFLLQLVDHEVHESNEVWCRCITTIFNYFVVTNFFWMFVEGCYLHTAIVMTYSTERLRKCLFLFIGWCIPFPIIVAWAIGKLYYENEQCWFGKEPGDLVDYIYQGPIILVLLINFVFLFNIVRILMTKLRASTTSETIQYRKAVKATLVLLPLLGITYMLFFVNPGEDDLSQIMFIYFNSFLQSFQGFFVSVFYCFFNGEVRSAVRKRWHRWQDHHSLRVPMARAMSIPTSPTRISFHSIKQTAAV
Outline: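 SK-N-MC cells stably expressing human CRHR2 were treated with peptides (1 pM to 1 μM) for 60 min at 37 °C in IBMX-containing medium, with 10 μM forskolin as positive control. Cells were lysed with 0.5 M HCl and cAMP measured by [125I]-cAMP competition flash plate. A50 came from Hill-equation fits, normalised to h-SCP maximum.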

h-CRHR2b = target: T2, h-CRHR2b (Homo sapiens, UniProt Q13324); settings: h-CRHR2b transfected HEK-293 cells, approximated values from concentration response curves (Hsu et al., 2001); cited from earlier work
T2 sequence (Q13324 1-438 isoform Q13324-2): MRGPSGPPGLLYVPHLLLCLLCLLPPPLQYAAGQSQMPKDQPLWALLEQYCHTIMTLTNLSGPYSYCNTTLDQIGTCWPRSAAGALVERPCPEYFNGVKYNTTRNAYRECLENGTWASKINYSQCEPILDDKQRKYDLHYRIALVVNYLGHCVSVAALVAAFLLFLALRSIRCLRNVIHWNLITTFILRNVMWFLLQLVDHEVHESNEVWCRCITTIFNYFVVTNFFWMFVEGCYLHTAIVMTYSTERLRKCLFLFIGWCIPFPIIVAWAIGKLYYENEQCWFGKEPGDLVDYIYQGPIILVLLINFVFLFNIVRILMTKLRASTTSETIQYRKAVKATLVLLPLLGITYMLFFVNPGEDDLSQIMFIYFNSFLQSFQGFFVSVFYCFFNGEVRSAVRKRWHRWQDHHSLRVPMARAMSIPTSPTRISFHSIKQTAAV

[1] = Table 11, h-CRHR2 transfected SK-N-MC cells, 1 hr at 37° Celsius, read-out: pA50 (Experimental) (converted)

Row | EC50 (human CRHR2; [1]) | nH (Hill slope) (human CRHR2; Table 11) | αmax (maximal asymptote) (human CRHR2; Table 11) | nH (Hill slope) (human CRHR2; Table 11, listed as h-SRP) | αmax (maximal asymptote) (human CRHR2; Table 11, listed as h-SRP) | Molecule | nH (Hill slope) (human CRHR2; Table 11, listed as h-SCP) | αmax (maximal asymptote) (human CRHR2; Table 11, listed as h-SCP) | nH (human CRHR2; Table 12) | αmax (human CRHR2; Table 12, normalized to the maximum response to h-SCP) | EC50 (human CRHR2; Table 13, cysteine mutation, N-ethylmaleimide capping, pegylation, read-out: pA50 (converted)) [nM] | nH (human CRHR2; Table 14) | αmax (human CRHR2; Table 14, % of the maximum response obtained to h-SCP) [%] | EC50 (human CRHR2; Table 14, read-out: pA50 (converted)) [nM] | Published pA50 (h-CRHR2b)
1 | 0.832 nM | 1.07 | 110.5 |  |  | CC[C@H](C)[C@H](NC(=O)[C@H](CO)NC(=O)[C@H](CC(C)C)NC(=O)[C@@H]1CCCN1C(=O)[C@@H]1CCCN1C(=O)[C@H](CC(=O)O)NC(=O)[C@@H](N)CC(=O)O)C(=O)N[C@@H](CC(=O)O)C(=O)N[C@@H](CC(C)C)C(=O)N[C@H](C(=O)N[C@@H](Cc1ccccc1)C(=O)N[C@@H](Cc1c[nH]cn1)C(=O)N[C@@H](CC(C)C)C(=O)N[C@@H](CC(C)C)C(=O)N[C@@H](CCCNC(=N)N)C(=O)N[C@H](C(=O)N[C@@H](CC(C)C)C(=O)N[C@@H](CC(C)C)C(=O)N[C@@H](CCC(=O)O)C(=O)N[C@@H](CC(C)C)C(=O)N[C@@H](C)C(=O)N[C@@H](CCCNC(=N)N)C(=O)N[C@H](C(=O)N[C@@H](CCC(N)=O)C(=O)N[C@@H](CO)C(=O)N[C@@H](CCC(N)=O)C(=O)N[C@@H](CCCNC(=N)N)C(=O)N[C@@H](CCC(=O)O)C(=O)N[C@@H](CCCNC(=N)N)C(=O)N[C@@H](C)C(=O)N[C@@H](CCC(=O)O)C(=O)N[C@@H](CCC(N)=O)C(=O)N[C@@H](CC(N)=O)C(=O)N[C@@H](CCCNC(=N)N)C(=O)N[C@H](C(=O)N[C@H](C(=O)N[C@@H](Cc1ccccc1)C(=O)N[C@@H](CC(=O)O)C(=O)N[C@@H](CO)C(=O)N[C@H](C(N)=O)C(C)C)[C@@H](C)CC)[C@@H](C)CC)[C@@H](C)O)[C@@H](C)O)[C@@H](C)O [SEQ ID NO: 114, DDPPLSIDLTFHLLRTLLELARTQSQRERAEQNRIIFDSV-NH2] |  |  |  |  |  |  |  |  | 
2 | 0.479 nM and 0.263 nM and 0.589 nM |  |  | 1.08 and 1.06 and 0.99 | 113.5 and 108.7 and 98.56 | H-HPGSRIVLSLDVPIGLLQILLEQARARAAREQATTNARILARV-NH2 [SEQ ID NO: 117, HPGSRIVLSLDVPIGLLQILLEQARARAAREQATTNARILARV-NH2, reference compound] |  |  |  |  |  |  |  |  | ~9^4

Row | Molecule | EC50 (human CRHR2; [1]) | nH (Hill slope) (human CRHR2; Table 11) | αmax (maximal asymptote) (human CRHR2; Table 11) | nH (Hill slope) (human CRHR2; Table 11, listed as h-SRP) | αmax (maximal asymptote) (human CRHR2; Table 11, listed as h-SRP) | nH (Hill slope) (human CRHR2; Table 11, listed as h-SCP) | αmax (maximal asymptote) (human CRHR2; Table 11, listed as h-SCP) | nH (human CRHR2; Table 12) | αmax (human CRHR2; Table 12, normalized to the maximum response to h-SCP) | EC50 (human CRHR2; Table 13, cysteine mutation, N-ethylmaleimide capping, pegylation, read-out: pA50 (converted)) [nM] | nH (human CRHR2; Table 14) | αmax (human CRHR2; Table 14, % of the maximum response obtained to h-SCP) [%] | EC50 (human CRHR2; Table 14, read-out: pA50 (converted)) [nM] | Published pA50 (h-CRHR2b)
3 | H-TKFTLSLDVPTNIMNLLFNIAKAKNLRAQAAANAHLMAQI-NH2 [SEQ ID NO: 1, TKFTLSLDVPTNIMNLLFNIAKAKNLRAQAAANAHLMAQI-NH2] | 0.389 nM and 0.708 nM and 0.437 nM and 0.407 nM |  |  |  |  | 0.99 and 1.04 and 1.39 and 1.55 | 99.31 and 97.53 and 116.1 and 98.2 | 1.18 | 98.68 | 0.182 to 0.339 | 1.26 | 100.1 | 0.398 | ~9^4
